Earlier results, collected in publication PMC2984425, “Safety and pharmacokinetics of novel selective vascular endothelial growth factor receptor-2 inhibitor YN968D1 in patients with advanced malignancies” (BMC Cancer, 2010).

What was measured:
[1] = test system: advanced refractory solid tumors; conditions: pooled analysis of 137 patients from 4 phase I trials; cited from earlier work
renal cell carcinoma = test system: renal cell carcinoma; design: method as in PMID 17215529; conditions: first-line treatment for renal cell carcinoma; cited from earlier work
colorectal cancer = test system: colorectal cancer; design: method as in PMID 17947727; conditions: 84 patients with colorectal cancer, monotherapy; cited from earlier work
[2] = test system: metastatic gastric cancer; design: method as in ref 16 = [16]; Moehler M Hartmann JT Lordick F Al-Batran S Reimer P Trarbach T Ebert M Daum S Weihrauch M Galle PR AIO Upper GI Group Sunitinib in patients with chemo-refractory metastatic gastric cancer: Preliminar; conditions: of 52 patients, chemo-refractory metastatic gastric cancer; cited from earlier work

Row | SMILES | PR, % of patients [1] | evaluable patients who achieved PR [1] | patients who had SD [1] | patients with signs of disease progression by radiological imaging [1] | progression-free survival (PFS) (renal cell carcinoma) | response rate (renal cell carcinoma) | patients who achieved PR (colorectal cancer) | patients with stable disease (colorectal cancer) | patients who showed tumor control [2]
1 | CNC(=O)c1cc(Oc2ccc(NC(=O)Nc3ccc(Cl)c(C(F)(F)F)c3)cc2)ccn1 [sorafenib] | 1.4% | 2 | 38 | 70.8% |  |  |  |  | 
2 | CCN(CC)CCNC(=O)c1c(C)[nH]c(/C=C2\C(=O)Nc3ccc(F)cc32)c1C [sunitinib] |  |  |  |  | 11 months | 31% | 1 | 13 | 5
